Measured values taken from ChEMBL document CHEMBL1151843, “Chromones from the endophytic fungus Pestalotiopsis sp. isolated from the chinese mangrove plant Rhizophora mucronata” (J Nat Prod, 2009).
Values after ≈ are worked out from the molar mass of the structure shown.

Each molecule was assayed on L5178Y (assay: Cytotoxicity against mouse L5178Y cells after 72 hrs by MTT assay). Settings: Mus musculus, L5178Y, 72 h; read-out: EC50; call rule not given here.
Type: functional, cell-based

Compound	EC50
CCCCCc1cc(=O)c2c(CC(=O)OC)cc(O)cc2o1 [PESTALOTIOPSONE F]	8.93 µg/mL (≈ 29.3 µM)

Same assay, conditions: l5178y

Compound	EC50
Cc1cc(O)cc2oc(C[C@H](C)O)cc(=O)c12	Not Active
CCCCCCCc1cc(=O)c2c(CC(=O)OC)cc(O)cc2o1 [PESTALOTIOPSONE A]	Not Active
CCCCCCCc1cc(=O)c2c(CC(=O)O)cc(O)cc2o1 [PESTALOTIOPSONE C]	Not Active
CCOC(=O)Cc1cc(O)cc2oc(CCCCCC(C)O)cc(=O)c12 (configuration not stated) [PESTALOTIOPSONE E]	Not Active
COC(=O)Cc1cc(O)cc2oc(CCCCCC(C)O)cc(=O)c12 (configuration not stated) [PESTALOTIOPSONE D]	Not Active
CCCCCCCc1cc(=O)c2c(CC(=O)OCC)cc(O)cc2o1 [PESTALOTIOPSONE B]	Not Active
